“And” between values parts separate entries of the source, which are not always exact repeats. Identical values can stand only once. Inconclusive results and toxic doses are left out.
Test system: P388 leukemia ip, CD2F1 mice, survival T/C
Experiment: NCI In Vivo Anticancer Drug Screen. Data for tumor model P388 Leukemia (intraperitoneal) in CD2F1 (CDF1) mice
Conditions: endpoint: median survival time, higher = longer survival
Summary of the method: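 Mice carrying the transplanted tumor received test compound or vehicle. Survival was recorded in each group, and the value is the treated-group measurement divided by that of the vehicle-treated control group.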

[1] = dose: 60.0 mg/kg/injection, schedule: Q01DX005 (ip), vehicle: saline
[2] = dose: 100.0 mg/kg/injection, schedule: Q01DX009 (ip), vehicle: saline with Tween-80
[3] = dose: 200.0 mg/kg/injection, schedule: Q01DX009 (ip), vehicle: saline with Tween-80
[4] = dose: 25.0 mg/kg/injection, schedule: Q01DX009 (ip), vehicle: other
[5] = dose: 50.0 mg/kg/injection, schedule: Q01DX009 (ip), vehicle: other
[6] = dose: 100.0 mg/kg/injection, schedule: Q01DX009 (ip), vehicle: other
[7] = dose: 15.0 mg/kg/injection, schedule: Q01DX005 (ip), vehicle: saline with Tween-80
[8] = dose: 30.0 mg/kg/injection, schedule: Q01DX005 (ip), vehicle: saline with Tween-80
[9] = dose: 60.0 mg/kg/injection, schedule: Q01DX005 (ip), vehicle: saline with Tween-80

`Cc1ccc(C)c(C(=O)CCN(C)C)c1` was tested, and the T/C (dose: 15.0 mg/kg/injection, schedule: Q01DX005 (ip), vehicle: saline) was 106 % of control, the T/C (dose: 30.0 mg/kg/injection, schedule: Q01DX005 (ip), vehicle: saline) was 94 % of control and the T/C [1] was 99 % of control and 101 % of control.

With `CC(=O)Nc1ccc(C(=O)O)cc1[N+](=O)[O-]` the T/C [2] was 99 % of control, the T/C [3] was 99 % of control and the T/C (dose: 400.0 mg/kg/injection, schedule: Q01DX009 (ip), vehicle: saline with Tween-80) was 97 % of control.

With `C/C=C(/C)C(=O)O[C@H]1CC[C@@]2(C)[C@@H]3CC[C@H]4[C@]5(O)C[C@H](O)[C@@]6(O)[C@@H](CN7C[C@@H](C)CC[C@H]7[C@@]6(C)O)[C@]5(O)C[C@@]42O[C@@]13O` the T/C (dose: 0.39 mg/kg/injection, schedule: Q01DX009 (ip), vehicle: saline with Tween-80) was 97 % of control, the T/C (dose: 0.5 mg/kg/injection, schedule: Q01DX009 (ip), vehicle: saline) was 95 % of control and the T/C (dose: 0.78 mg/kg/injection, schedule: Q01DX009 (ip), vehicle: saline with Tween-80) was 101 % of control. The T/C (dose: 1.0 mg/kg/injection, schedule: Q01DX009 (ip), vehicle: saline) was 109 % of control, the T/C (dose: 1.56 mg/kg/injection, schedule: Q01DX009 (ip), vehicle: saline with Tween-80) was 101 % of control and the T/C (dose: 2.0 mg/kg/injection, schedule: Q01DX009 (ip), vehicle: saline) was 109 % of control. For the same molecule, the T/C (dose: 3.12 mg/kg/injection, schedule: Q01DX009 (ip), vehicle: saline with Tween-80) was 97 % of control and the T/C (dose: 6.25 mg/kg/injection, schedule: Q01DX009 (ip), vehicle: saline with Tween-80) was 88 % of control.

With `COc1cc(-c2oc3ccccc3c(=O)c2O)cc(OC)c1OC` the T/C (dose: 50.0 mg/kg/injection, schedule: Q01DX009 (ip), vehicle: saline with Tween-80) was 93 % of control, the T/C [2] was 91 % of control and the T/C [3] was 93 % of control.

With `CC(=O)CC(=O)c1ccc(Br)cc1.CC(=O)CC(=O)c1ccc(Br)cc1.[Ni]` the T/C (dose: 100.0 mg/kg/injection, schedule: Q01DX001 (ip), vehicle: saline with Tween-80) was 90 % of control, the T/C (dose: 200.0 mg/kg/injection, schedule: Q01DX001 (ip), vehicle: saline with Tween-80) was 87 % of control and the T/C (dose: 400.0 mg/kg/injection, schedule: Q01DX001 (ip), vehicle: saline with Tween-80) was 90 % of control.

With `CCOC(=O)c1cn2ccccc2c(C(=O)c2cccnc2)c1=N` the T/C (dose: 100.0 mg/kg/injection, schedule: Q04DX003 (ip), vehicle: saline) was 91 % of control, the T/C (dose: 200.0 mg/kg/injection, schedule: Q04DX003 (ip), vehicle: saline) was 96 % of control and the T/C (dose: 400.0 mg/kg/injection, schedule: Q04DX003 (ip), vehicle: saline) was 96 % of control.

`CN(C)c1ccc2c(NCCCCCCNc3ccnc4cc(N(C)C)ccc34)ccnc2c1` was tested, and the T/C (dose: 1.56 mg/kg/injection, schedule: Q01DX009 (ip), vehicle: distilled water + alcohol) was 116 % of control, the T/C (dose: 6.25 mg/kg/injection, schedule: Q01DX009 (ip), vehicle: distilled water + alcohol) was 120 % of control and the T/C (dose: 12.5 mg/kg/injection, schedule: Q01DX009 (ip), vehicle: distilled water + alcohol) was 150 % of control and 152 % of control. The T/C (dose: 25.0 mg/kg/injection, schedule: Q01DX009 (ip), vehicle: distilled water + Tween-80 + alcohol) was 174 % of control and the T/C (dose: 50.0 mg/kg/injection, schedule: Q01DX009 (ip), vehicle: distilled water + alcohol) was 168 % of control.

In the case of `CC(N)C(=O)NC(CC(N)=O)C(=O)O` (configuration not stated), the T/C (dose: 50.0 mg/kg/injection, schedule: Q01DX005 (ip), vehicle: saline) is reported as 105 % of control, the T/C (dose: 50.0 mg/kg/injection, schedule: Q01DX009 (ip), vehicle: saline) is reported as 101 % of control and the T/C (dose: 100.0 mg/kg/injection, schedule: Q01DX005 (ip), vehicle: saline) is reported as 110 % of control. For the same molecule, the T/C (dose: 100.0 mg/kg/injection, schedule: Q01DX009 (ip), vehicle: saline) was 94 % of control, the T/C (dose: 200.0 mg/kg/injection, schedule: Q01DX005 (ip), vehicle: saline) was 94 % of control and the T/C (dose: 200.0 mg/kg/injection, schedule: Q01DX009 (ip), vehicle: saline) was 93 % of control.

For `CC(=O)SC(C(=O)O)C(SC(C)=O)C(=O)O` (configuration not stated), the T/C [4] was 106 % of control, the T/C [5] was 115 % of control and the T/C [6] was 102 % of control. For the same molecule, the T/C (dose: 200.0 mg/kg/injection, schedule: Q01DX009 (ip), vehicle: other) was 89 % of control.

`O=C1C=CC(=CC=C2C=CN(CCCCCCCCCCCO)C=C2)C=C1` was tested, and the T/C (dose: 1.56 mg/kg/injection, schedule: Q01DX005 (ip), vehicle: saline with Tween-80) was 111 % of control, the T/C (dose: 3.12 mg/kg/injection, schedule: Q01DX005 (ip), vehicle: saline with Tween-80) was 114 % of control and 118 % of control and the T/C (dose: 6.25 mg/kg/injection, schedule: Q01DX005 (ip), vehicle: saline with Tween-80) was 121 % of control. For the same molecule, the T/C (dose: 7.5 mg/kg/injection, schedule: Q01DX005 (ip), vehicle: saline with Tween-80) was 109 % of control, the T/C (dose: 12.5 mg/kg/injection, schedule: Q01DX005 (ip), vehicle: saline with Tween-80) was 118 % of control and 121 % of control and the T/C [7] was 109 % of control and 111 % of control. The T/C [8] was 118 % of control and the T/C (dose: 50.0 mg/kg/injection, schedule: Q01DX005 (ip), vehicle: saline with Tween-80) was 100 % of control.

For `ClC(Cl)(Cl)C(=NN=C(C(Cl)(Cl)Cl)C(Cl)(Cl)Cl)C(Cl)(Cl)Cl`, the T/C [7] was 106 % of control, the T/C [8] was 103 % of control and the T/C [9] was 100 % of control and 109 % of control.

With `O=C1NC(=O)C(F)(F)C(O)N1` (configuration not stated) the T/C (dose: 75.0 mg/kg/injection, schedule: Q04DX002 (ip), vehicle: saline) was 109 % of control, the T/C (dose: 100.0 mg/kg/injection, schedule: Q01DX009 (ip), vehicle: saline sonified) was 154 % of control and the T/C (dose: 150.0 mg/kg/injection, schedule: Q01DX009 (ip), vehicle: saline sonified) was 172 % of control. For the same molecule, the T/C (dose: 150.0 mg/kg/injection, schedule: Q04DX002 (ip), vehicle: saline) was 109 % of control, the T/C (dose: 220.0 mg/kg/injection, schedule: Q01DX009 (ip), vehicle: saline sonified) was 177 % of control and the T/C (dose: 300.0 mg/kg/injection, schedule: Q04DX002 (ip), vehicle: saline) was 116 % of control. For the same molecule, the T/C (dose: 600.0 mg/kg/injection, schedule: Q04DX002 (ip), vehicle: saline) was 106 % of control and the T/C (dose: 1200.0 mg/kg/injection, schedule: Q04DX002 (ip), vehicle: saline) was 104 % of control.

`CCOC(=O)c1csc(Br)n1` was tested, and the T/C [9] was 104 % of control, the T/C (dose: 120.0 mg/kg/injection, schedule: Q01DX005 (ip), vehicle: saline with Tween-80) was 100 % of control and the T/C (dose: 240.0 mg/kg/injection, schedule: Q01DX005 (ip), vehicle: saline with Tween-80) was 100 % of control.

`Cc1ccc([N+](=O)[O-])cc1O` was tested, and the T/C [4] was 95 % of control, the T/C [5] was 100 % of control and the T/C [6] was 110 % of control.

In the case of `Cc1cc(N(CCCl)CCCl)ccc1NC(=O)c1ccccc1`, the T/C (dose: 50.0 mg/kg/injection, schedule: Q04DX003 (ip), vehicle: Klucel (hydroxypropylcellulose) (HPC)) is reported as 109 % of control, the T/C (dose: 100.0 mg/kg/injection, schedule: Q04DX003 (ip), vehicle: Klucel (hydroxypropylcellulose) (HPC)) is reported as 118 % of control and the T/C (dose: 200.0 mg/kg/injection, schedule: Q04DX003 (ip), vehicle: Klucel (hydroxypropylcellulose) (HPC)) is reported as 116 % of control.

For `c1ncc2n[pH]nc2n1` (configuration not stated), the T/C [1] was 95 % of control, the T/C (dose: 120.0 mg/kg/injection, schedule: Q01DX005 (ip), vehicle: saline) was 101 % of control and the T/C (dose: 240.0 mg/kg/injection, schedule: Q01DX005 (ip), vehicle: saline) was 96 % of control.

`CCOCC(=O)[C@]1(O)Cc2c(O)c3c(c(O)c2[C@@H](OC2CC(N)C(O)C(C)O2)C1)C(=O)c1c(OC)cccc1C3=O` (some centres not stated) was tested, and the T/C (dose: 1.56 mg/kg/injection, schedule: Q01DX009 (ip), vehicle: water) was 153 % of control and the T/C (dose: 3.13 mg/kg/injection, schedule: Q01DX009 (ip), vehicle: water) was 158 % of control and 163 % of control.

In the case of `CCO[Si](CCSC(=O)N(CCCl)CCCl)(OCC)OCC`, the T/C (dose: 100.0 mg/kg/injection, schedule: Q04DX002 (ip), vehicle: saline with Tween-80) is reported as 99 % of control, the T/C (dose: 200.0 mg/kg/injection, schedule: Q04DX002 (ip), vehicle: saline with Tween-80) is reported as 98 % of control and the T/C (dose: 400.0 mg/kg/injection, schedule: Q04DX002 (ip), vehicle: saline with Tween-80) is reported as 107 % of control.

With `CC1(C)CC(OS(=O)(=O)c2ccc(Br)cc2)CC(C)(C)N1O` the T/C (dose: 50.0 mg/kg/injection, schedule: Q01DX009 (ip), vehicle: Klucel (hydroxypropylcellulose) (HPC)) was 93 % of control, the T/C (dose: 100.0 mg/kg/injection, schedule: Q01DX009 (ip), vehicle: Klucel (hydroxypropylcellulose) (HPC)) was 99 % of control and the T/C (dose: 200.0 mg/kg/injection, schedule: Q01DX009 (ip), vehicle: Klucel (hydroxypropylcellulose) (HPC)) was 97 % of control.

Source: PubChem BioAssay AID330 (DTP/NCI, 2004)
